Measured values taken from patent US7745492B2, “Carboxamido opioid compounds” (Janssen Pharmaceutical, priority 2004, dated 2010).

Columns and labels:
delta opioid receptor = molecular target: T1, delta opioid receptor (Rattus norvegicus, UniProt P33533); assay: Rat brain delta opioid receptor binding assay ([3H]DPDPE); settings: rat forebrain membranes, 25° C.
T1 construct: from tissue; host or cells: rat forebrain membrane (particulate) preparation
Experimental: (§1) Rat Brain Mu and Delta Opioid Receptor Binding Assay
Male, Wistar rats (150-250 g, VAF, Charles River, Kingston, N.Y.) were killed by cervical dislocation and their brains removed and placed immediately in ice cold Tris HCl buffer (50 mM, pH 7.4). The forebrains were separated from the remainder of the brain by a coronal transection, beginning dorsally at the colliculi and passing ventrally through the midbrain-pontine junction. After dissection, the forebrains were homogenized in Tris buffer in a Teflon®-glass homogenizer. The homogenate was diluted to a concentration of 1 g of forebrain tissue per 100 mL Tris buffer and centrifuged at 39,000×G for 10 min. The pellet was resuspended in the same volume of Tris buffer with several brief pulses from a Polytron homogenizer. This particulate preparation was used for the opioid receptor binding assays. […] The tubes and filters were rinsed three times with 4 mL of 10 mM HEPES (pH 7.4) and the radioactivity associated with the filter circles determined using Formula 989 scintillation fluid (New England Nuclear, Boston, Mass.) in a scintillation counter.
(§2) The data were used to calculate a Ki value, using GraphPad Prism.

mu opioid receptor = molecular target: T2, mu opioid receptor (Rattus norvegicus, UniProt P33535); assay: Rat brain mu opioid receptor binding assay ([3H]DAMGO); settings: rat forebrain membranes, 25° C.
T2 construct: from tissue; host or cells: rat forebrain membrane (particulate) preparation
T2 sequence (P33535 whole entry): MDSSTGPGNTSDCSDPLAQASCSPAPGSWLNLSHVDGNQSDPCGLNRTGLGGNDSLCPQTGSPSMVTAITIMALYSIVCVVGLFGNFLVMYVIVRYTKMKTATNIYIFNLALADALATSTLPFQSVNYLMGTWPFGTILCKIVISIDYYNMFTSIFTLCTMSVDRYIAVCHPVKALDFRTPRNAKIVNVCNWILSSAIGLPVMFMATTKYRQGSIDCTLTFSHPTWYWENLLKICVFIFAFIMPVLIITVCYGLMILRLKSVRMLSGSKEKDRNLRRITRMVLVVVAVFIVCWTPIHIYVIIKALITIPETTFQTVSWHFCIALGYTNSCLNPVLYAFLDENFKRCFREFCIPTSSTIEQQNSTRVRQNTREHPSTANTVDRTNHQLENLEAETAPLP
Experimental: as §1
Male, Wistar rats (150-250 g, VAF, Charles River, Kingston, N.Y.) were killed by cervical dislocation and their brains removed and placed immediately in ice cold Tris HCl buffer (50 mM, pH 7.4). The forebrains were separated from the remainder of the brain by a coronal transection, beginning dorsally at the colliculi and passing ventrally through the midbrain-pontine junction. After dissection, the forebrains were homogenized in Tris buffer in a Teflon®-glass homogenizer. The homogenate was diluted to a concentration of 1 g of forebrain tissue per 100 mL Tris buffer and centrifuged at 39,000×G for 10 min. The pellet was resuspended in the same volume of Tris buffer with several brief pulses from a Polytron homogenizer. This particulate preparation was used for the opioid receptor binding assays. Following incubation with the mu opioid selective peptide ligand [^3H]DAMGO or the delta opioid selective ligand [^3H]DPDPE at 25° C., the tube contents were filtered through Whatman GF/B filter sheets on a Brandel cell harvester. The tubes and filters were rinsed three times with 4 mL of 10 mM HEPES (pH 7.4) and the radioactivity associated with the filter circles determined using Formula 989 scintillation fluid (New England Nuclear, Boston, Mass.) in a scintillation counter.
as §2

[1] = tested on: spinal nerve ligated rats; assay: Investigation of tolerance development to antiallodynic effect; assay type: in vivo, rat; settings: dosing for five days, evaluated days one and five
Experimental: Investigation of Tolerance Development
The development of tolerance to the analgesic effect of mu opioid compounds is well known. The development of tolerance to the antiallodynic effect of the Compound 3 was investigated by administering the compound to spinal nerve ligated rats for five days. The antiallodynic effect of the compound was evaluated on days one and five.

Human mu opioid = molecular target: T3, Human mu opioid (Homo sapiens, UniProt P35372); assay: [35S]GTPγS binding assay in human mu opioid-CHO cell membranes; assay type: biochemical
T3 construct: host or cells: CHO cell membranes
T3 sequence (P35372 whole entry): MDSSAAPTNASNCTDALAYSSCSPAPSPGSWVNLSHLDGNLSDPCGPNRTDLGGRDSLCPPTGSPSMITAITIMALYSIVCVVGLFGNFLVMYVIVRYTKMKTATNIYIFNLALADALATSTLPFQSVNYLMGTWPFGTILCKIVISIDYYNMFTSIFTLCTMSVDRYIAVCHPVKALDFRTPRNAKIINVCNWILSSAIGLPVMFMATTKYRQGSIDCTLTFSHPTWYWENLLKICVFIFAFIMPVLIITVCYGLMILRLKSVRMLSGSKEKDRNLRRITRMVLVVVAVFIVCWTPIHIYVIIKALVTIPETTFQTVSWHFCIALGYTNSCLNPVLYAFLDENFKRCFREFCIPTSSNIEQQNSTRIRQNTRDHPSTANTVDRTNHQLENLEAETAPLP
Experimental: [^35S]GTPγS Binding Assay in Human mu opioid-CHO Cell Membranes
Human mu-CHO cell membranes were purchased from Receptor Biology, Inc. (Baltimore, Md.). About 10 mg/ml of membrane protein was suspended in 10 mM TRIS-HCl, pH 7.2, 2 mM EDTA, 10% sucrose.
(§3) Membranes were maintained at 4-8° C. 1 ml of membranes was added into 15 ml cold assay buffer, containing 50 mM HEPES, pH 7.6, 5 mM MgCl2, 100 mM NaCl, 1 mM DTT and 1 mM EDTA. The membrane suspension was homogenized with a Polytron 2 times and centrifuged at 3000 rpm for 10 min. The supernatant was then centrifuged at 18,000 rpm for 20 min. The pellet was resuspended in 10 ml assay buffer with a Polytron.
The pellet membranes (20 μg/ml) were preincubated with Scintillation Proximity Assay beads (SPA, 10 mg/ml) at 25° C. for 45 min in the assay buffer. The SPA beads (5 mg/ml) coupled with membranes (10 μg/ml) were then incubated with 0.5 nM [^35S]GTPγS in the same HEPES buffer containing 50 μM GDP in total volume of 200 μl. A range of concentrations of receptor agonists were used to stimulate [^35S]GTPγS binding. The basal binding was tested in the absence of agonist and non-specific binding was tested in the presence of 10 μM unlabeled GTPγS. Radioactivity was quantified on a Packard TopCount.
Data were Calculated as Follows: % of basal=(stimulated−non-specific)*100/(basal−non specific) % Inhibition=(% Basal of 1 μM DAMGO−% Basal of compound)*100/(% Basal of 1 μM DAMGO−100)
(§4) EC50 values were calculated using the Prism program.

Delta opioid = molecular target: T4, Delta opioid (Mus musculus, UniProt P32300); assay: [35S]GTPγS binding assay in NG108-15 cell membrane; assay type: biochemical; settings: NG108-15 cell membranes
T4 construct: NG108-15 cell membranes were purchased from Applied Cell Sciences (Rockville, Md.); host or cells: NG108-15 cell membranes
T4 sequence (P32300 whole entry): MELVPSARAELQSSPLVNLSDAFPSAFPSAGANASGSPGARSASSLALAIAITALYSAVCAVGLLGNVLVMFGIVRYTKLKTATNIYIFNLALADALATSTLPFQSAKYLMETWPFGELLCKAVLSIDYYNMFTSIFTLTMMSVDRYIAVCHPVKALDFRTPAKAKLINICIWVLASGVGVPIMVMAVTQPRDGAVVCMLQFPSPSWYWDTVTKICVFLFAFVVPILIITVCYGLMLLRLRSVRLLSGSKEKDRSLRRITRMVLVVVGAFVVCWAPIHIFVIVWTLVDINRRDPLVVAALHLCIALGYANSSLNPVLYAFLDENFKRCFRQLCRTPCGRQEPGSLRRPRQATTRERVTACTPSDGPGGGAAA
Experimental: [^35S]GTPγS Binding Assay in NG108-15 Cell Membrane
NG108-15 cell membranes were purchased from Applied Cell Sciences (Rockville, Md.). An 8 mg/mL portion of membrane protein was suspended in 10 mM TRIS-HCl, pH 7.2, 2 mM EDTA, 10% sucrose.
as §3, with “C. A” for “C.”, “1 mL portion” for “1 ml”, “into 10 mL” for “into 15 ml”, “mM Tris,” for “mM HEPES,”, “mM EGTA.” for “mM EDTA.”, “buffer using” for “buffer with”
The pellet membranes (75 μg/ml) were preincubated with SPA beads (10 mg/ml) at 25° C. for 45 min in the assay buffer. The SPA beads (5 mg/ml) coupled with membranes (37.5 μg/ml) were then incubated with 0.1 nM [^35S] GTPγS in the same Tris buffer containing 100 μM GDP in total volume of 200 μl. A range of concentrations of receptor agonists was used to stimulate [^35S] GTPγS binding. The basal binding was tested in the absence of agonist and non-specific binding was tested in the presence of 10 μM unlabeled GTPγS. The radioactivity was quantified on a Packard TopCount.
Calculations were performed as follows: % of Basal=(stimulated−non specific)*100/(basal−non specific).
as §4

Male Sprague Dawley rats = assay: Spinal nerve ligation (SNL) model of neuropathic pain, mechanical allodynia (Von Frey); assay type: in vivo; settings: rat
Experimental: Spinal Nerve Ligation (SNL) Model of Neuropathic Pain
Male Sprague Dawley rats weighing 145 to 165 g (approximately 6 weeks of age) were obtained from Harlan (Indianapolis, Ind.). Food and water were provided ad lib and a 12 h light and 12 h dark cycle were maintained. Animals were group housed under specific pathogen-free, barrier maintained environment and were allowed to acclimate for no less than 1 week. Following surgery, animals were housed individually in solid bottom polycarbonate cages with automatic watering devices at 22° C. and a relative humidity of 60%. All animals received Harland Tekland Diet # 8604.
Anesthesia was induced using isoflurane (IsoVet™) inhalant in an induction chamber (3-5% in 2 L/min of O2). Once recumbent, the animal was removed and placed into a nose cone which delivered inhalant isoflurane (0.5-2.5% at 2 L/min Of O2). The dorsal pelvic area was shaved and scrubbed aseptically with chlorhexidine scrub, 70% alcohol, and a 5% chlorhexidine solution. The animal was held in ventral recumbency on a heating pad, and the surgical procedure described by Kim and Chung (1992) was performed. The left paraspinal muscles were separated from the spinous processes at the level of Lumbar 4 to Sacral 2 (L4-S2). Once the musculature was retracted, the L6 transverse process was removed using a small rongeur. L4 and L5 spinal nerves could then be visualized. L5 was then isolated and ligated using 6-0 silk suture material. Warm saline and a dose of long-acting antibiotic was administered immediately post-op before recovery form anesthesia.
At least one week following surgery, animals were individually placed in a Lucite testing chamber with a wire mesh bottom. Mechanical (tactile) allodynia was measured by recording the pressure at which the affected paw was withdrawn from graded stimuli (Von Frey hairs ranging from 4.0 to 148.1 mN equivalent to 0.25 to 15 g of pressure) applied to the plantar surface of the paw (between the footpads) according to the procedure of Chaplan et. al (1994) in order to calculate paw withdrawal threshold (PWT). Normal rats can withstand at least 15 g of pressure without responding. SNL rats can respond to as little as 0.25 g of pressure. Rats were included in this study only if their PWT was below 4.0 g.
Animals were used for compound testing between 2 weeks and 8 weeks post-operatively. Animals were always pre-tested for baseline withdrawal threshold on the day of testing. Following a 16 h fast, PWT was evaluated at 30 min, 1 h, 2 h, and 4 h post-dosing. Dose-response studies were conducted at the time of peak effect. Studies were conducted in a blinded manner.
Data were normalized and results were presented as % MPE (maximum possible effect) of the drug.

male Sprague-Dawley rats = assay: Rat CFA radiant heat model of inflammatory pain; assay type: in vivo; settings: dosed orally 24 h after intraplantar CFA
Experimental: Rat CFA Radiant Heat Model of Inflammatory Pain
Intraplantar injection of Complete Freund's Adjuvant (CFA) in rodents results in a strong, long-lasting inflammatory reaction, characterized by a chronic and pronounced hyperalgesia to both thermal and mechanical stimuli. These effects peak between 24-72 h following injection, and can last for several days to a few weeks. To assess the ability of compounds to reverse thermal hyperalgesia, male Sprague-Dawley rats (200-350 g) were given an intraplantar injection of CFA (1:1 CFA:saline, 100 μL) into their left hindpaw. Following a 24-h incubation period, response latencies on the Radiant Heat Paw Stimulator (RH) were obtained and compared to baseline (pre-CFA) latencies. The RH device automatically registered lifting of the paw from the surface of the glass. […] Following the post CFA latency assessment, rats were dosed orally (2.5 mL/kg) with test compound or vehicle (hydroxypropylmethylcellulose, HPMC). Percent reversal of hyperalgesia was calculated for each animal as (Treatment Response−postCFA Response)/(preCFA Response−postCFA Response)×100. Therefore, a return to normal pre-CFA thresholds was defined as 100% efficacy, whereas no change from post-CFA thresholds was 0% efficacy. Average % reversal of hyperalgesia was then calculated for each treatment group (n=6-8 rats/group). […]

T1 sequence (P33533 whole entry): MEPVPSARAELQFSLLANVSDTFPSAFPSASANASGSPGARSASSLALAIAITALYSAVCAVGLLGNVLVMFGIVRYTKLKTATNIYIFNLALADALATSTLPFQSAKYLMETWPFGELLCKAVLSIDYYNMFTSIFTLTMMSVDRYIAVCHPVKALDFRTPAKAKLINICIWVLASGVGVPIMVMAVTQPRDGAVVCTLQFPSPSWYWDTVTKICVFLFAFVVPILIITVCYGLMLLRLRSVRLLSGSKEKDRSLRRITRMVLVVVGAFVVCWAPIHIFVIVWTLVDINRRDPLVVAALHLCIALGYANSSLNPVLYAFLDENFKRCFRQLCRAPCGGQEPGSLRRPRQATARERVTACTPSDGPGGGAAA

CNC(=O)c1cccc([C@@]2(O)CCCC[C@@H]2CN(C)C)c1 (racemic) [Cpd 7, 3-[(1-RS, 2-RS)-2-[(Dimethylamino)methyl]-1-hydroxycyclohexyl]-N-methylbenzamide]
Ki (delta opioid receptor): > 10 µM
Ki (mu opioid receptor): 2.12 µM

CCN(CC)C(=O)c1cccc([C@@]2(O)CCCC[C@@H]2CN(C)C)c1 (racemic) [Cpd 5, 3-[(1-RS, 2-RS)-2-[(dimethylamino)methyl]-1-hydroxycyclohexyl]-N,N-diethyl-benzamide]
Ki (delta opioid receptor): > 10 µM
Ki (mu opioid receptor): > 10 µM

CN(C)C[C@H]1CCCC[C@]1(O)c1cccc(C(=O)NC2CC2)c1 (racemic) [Cpd 6, N-Cyclopropyl-3-[(1-RS, 2-RS)-2-[(dimethylamino)methyl]-1-hydroxycyclohexyl]-benzamide]
Ki (delta opioid receptor): > 10 µM
Ki (mu opioid receptor): 5.19 µM

CN1CC[C@]23c4c5ccc(O)c4O[C@H]2[C@@H](O)C=C[C@H]3[C@H]1C5 [morphine, reference compound]
Development of tolerance to the antiallodynic effect [1]: little or no antiallodynic effect remaining after five days of dosing

CN(C)C[C@H]1CCCC[C@]1(O)c1cccc(C(N)=O)c1 (racemic) [Cpd 2, 3-[(1-RS, 2-RS)-[(2-Dimethylamino)methyl]-1-hydroxycyclohexyl]-benzamide]
Mu opioid GTPγS (result in words) (Human mu opioid): Agonist
EC50 (Delta opioid): 5.63 µM
Ki (delta opioid receptor): 2.47 µM
Ki (mu opioid receptor): 0.0294 µM
MPE in spinal nerve ligation model (Male Sprague Dawley rats; 3 mg/kg, i.v.): 87%
MPE in spinal nerve ligation model (Male Sprague Dawley rats; 30 mg/kg, p.o.): 88%

CN(C)C[C@@H]1CCCC[C@]1(O)c1cccc(C(N)=O)c1 (racemic) [Cpd 1, 3-[(1-RS, 2-SR)-2-[(Dimethylamino)methyl]-1-hydroxycyclohexyl]-benzamide]
Ki (delta opioid receptor): 9.87 µM
Ki (mu opioid receptor): 1.39 µM

CN(C)C[C@@H]1CCCC[C@@]1(O)c1cccc(C(N)=O)c1 (single isomer, unassigned) [Cpd 4]
EC50 (Human mu opioid): 4.82 µM
Mu opioid GTPγS relative efficacy (Human mu opioid): 41%
Ki (delta opioid receptor): > 10 µM
Ki (mu opioid receptor): 0.828 µM
Antihyperalgesic effect (reversal of thermal hyperalgesia) (male Sprague-Dawley rats): antihyperalgesic
MPE in spinal nerve ligation model (Male Sprague Dawley rats; 30 mg/kg, p.o.): 39%
MPE in spinal nerve ligation model (Male Sprague Dawley rats; 100 mg/kg, p.o.): 95%
